According to ChEMBL document CHEMBL1131286, “Design and synthesis of m1-selective muscarinic agonists: (R)-(-)-(Z)-1-Azabicyclo[2.2.1]heptan-3-one, O-(3-(3'-methoxyphenyl)-2-propynyl)oxime maleate (CI-1017), a functionally m1-selective muscarinic agonist” (J Med Chem, 1998):
Active and inactive are the calls of the source. No cut-off for these calls is given here.

How the values were obtained:
[1] = target: T1, Muscarinic acetylcholine receptor M1 (Homo sapiens, UniProt P11229); assay: biochemical; format: cell-based, CHO
T1 sequence (P11229 whole entry): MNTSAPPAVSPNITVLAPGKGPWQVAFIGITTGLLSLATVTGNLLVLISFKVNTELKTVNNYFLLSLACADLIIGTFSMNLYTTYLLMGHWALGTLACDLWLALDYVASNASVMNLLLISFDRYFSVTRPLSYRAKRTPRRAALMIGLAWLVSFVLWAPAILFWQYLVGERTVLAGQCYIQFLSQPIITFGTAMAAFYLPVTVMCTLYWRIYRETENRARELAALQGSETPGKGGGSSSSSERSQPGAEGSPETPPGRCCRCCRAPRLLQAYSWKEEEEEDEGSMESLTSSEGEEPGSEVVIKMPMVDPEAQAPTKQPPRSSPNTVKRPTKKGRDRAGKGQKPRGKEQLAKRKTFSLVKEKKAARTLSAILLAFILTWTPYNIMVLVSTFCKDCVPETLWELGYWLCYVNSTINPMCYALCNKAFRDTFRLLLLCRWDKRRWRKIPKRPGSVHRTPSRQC
Description: Binding affinity of [3H]-QNB to CHO cells expressing human Muscarinic acetylcholine receptor M1

[2] = target: Muscarinic acetylcholine receptor; assay: Muscarinic acetylcholine receptor binding assay was conducted using [3H]quinuclidinyl benzilate (QNB) to label antagonist sites in membrane preparations from rat neocortex
[3] = target: T2, Muscarinic acetylcholine receptor M2 (Homo sapiens, UniProt P08172); assay: Binding affinity of [3H]QNB to CHO cells expressing human Muscarinic acetylcholine receptor M2; format: cell-based
T2 sequence (P08172 whole entry): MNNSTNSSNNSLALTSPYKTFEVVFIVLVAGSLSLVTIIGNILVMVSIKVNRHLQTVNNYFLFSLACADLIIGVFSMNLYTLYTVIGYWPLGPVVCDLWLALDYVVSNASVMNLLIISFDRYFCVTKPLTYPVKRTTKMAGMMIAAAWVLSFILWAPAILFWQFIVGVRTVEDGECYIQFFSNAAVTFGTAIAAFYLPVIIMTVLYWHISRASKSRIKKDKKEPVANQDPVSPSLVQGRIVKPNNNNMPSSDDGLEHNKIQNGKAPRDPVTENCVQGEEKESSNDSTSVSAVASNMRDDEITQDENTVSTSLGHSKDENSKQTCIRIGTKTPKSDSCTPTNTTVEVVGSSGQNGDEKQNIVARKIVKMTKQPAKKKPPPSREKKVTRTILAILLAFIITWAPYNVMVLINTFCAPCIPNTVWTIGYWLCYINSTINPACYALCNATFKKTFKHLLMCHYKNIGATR

[4] = target: Muscarinic acetylcholine receptor; assay: Muscarinic acetylcholine receptor binding assay was conducted using [3H]cis-methyldioxolane (CMD) to label agonist sites in membrane preparations from rat neocortex
[5] = target: T3, Muscarinic acetylcholine receptor M5 (Homo sapiens) (UniProt P08912); assay: Inositol phosphate(PI) accumulation in CHO cells expressing Muscarinic acetylcholine receptor M5 as maximal response at 100 uM relative to carbachol; format: functional, cell-based
T3 sequence (whole entry): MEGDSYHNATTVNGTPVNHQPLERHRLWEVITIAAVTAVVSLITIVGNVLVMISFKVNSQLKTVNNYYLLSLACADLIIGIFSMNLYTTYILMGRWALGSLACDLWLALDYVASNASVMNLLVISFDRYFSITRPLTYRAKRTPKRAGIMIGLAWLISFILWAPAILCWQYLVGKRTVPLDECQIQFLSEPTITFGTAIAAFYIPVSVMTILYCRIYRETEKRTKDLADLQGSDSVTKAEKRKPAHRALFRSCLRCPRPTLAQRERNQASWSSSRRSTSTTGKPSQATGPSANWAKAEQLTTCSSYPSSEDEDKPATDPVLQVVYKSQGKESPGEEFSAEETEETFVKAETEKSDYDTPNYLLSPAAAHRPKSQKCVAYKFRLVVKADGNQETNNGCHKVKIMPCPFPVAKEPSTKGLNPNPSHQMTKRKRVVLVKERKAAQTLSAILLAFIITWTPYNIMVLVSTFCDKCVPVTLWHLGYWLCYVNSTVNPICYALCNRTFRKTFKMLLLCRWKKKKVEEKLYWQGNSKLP

[6] = target: T4, Muscarinic acetylcholine receptor M1 (Homo sapiens) (UniProt P11229); assay: Stimulation of inositol phosphate(PI) accumulation in CHO cells expressing Muscarinic acetylcholine receptor M1 as maximal response at 100 uM relative to carbachol; format: functional, cell-based
T4 sequence (whole entry): T1 sequence (P11229 whole entry)

[7] = target: Muscarinic acetylcholine receptor (Rattus norvegicus) (UniProt P08482+P08483+P08485+P08911+P10980); assay: Ratio of QNB binding to CMD binding was evaluated; format: protein assay
[8] = target: Muscarinic acetylcholine receptor M3 (Homo sapiens) (UniProt P20309); assay: Inositol phosphate(PI) accumulation in CHO cells expressing Muscarinic acetylcholine receptor M3 as maximal response at 100 uM relative to carbachol; format: functional, cell-based
[9] = target: T5, Muscarinic acetylcholine receptor M2 (Homo sapiens) (UniProt P08172); assay: Maximal response obtained for each drug normalized to effect of carbachol in Muscarinic acetylcholine receptor M2; format: functional
T5 sequence (whole entry): T2 sequence (P08172 whole entry)

[10] = target: T3, Muscarinic acetylcholine receptor M5 (Homo sapiens); assay: Amplification of transfected NIH3T3 cells was measured in Muscarinic acetylcholine receptor M5 required to produce half maximal effect; format: functional, cell-based
[11] = target: T3, Muscarinic acetylcholine receptor M5 (Homo sapiens); assay: Maximal response obtained for each drug normalized to effect of carbachol in Muscarinic acetylcholine receptor M5; format: functional
[12] = target: Muscarinic acetylcholine receptor M3 (Homo sapiens) (UniProt P20309); details: NIH3T3
Description: Amplification of transfected NIH3T3 cells was measured in Muscarinic acetylcholine receptor M3 required to produce half maximal effect

[13] = target: T5, Muscarinic acetylcholine receptor M2 (Homo sapiens); assay: Reversal of forskolin-stimulated accumulation of […] in transfected CHO cells, against Muscarinic acetylcholine receptor M2; Not active up to 1 mM; format: functional, cell-based
[14] = target: T6, Muscarinic acetylcholine receptor M4 (Homo sapiens) (UniProt P08173); assay: Amplification of transfected NIH3T3 cells was measured in Muscarinic acetylcholine receptor M4 required to produce half maximal effect; format: functional, cell-based
T6 sequence (whole entry): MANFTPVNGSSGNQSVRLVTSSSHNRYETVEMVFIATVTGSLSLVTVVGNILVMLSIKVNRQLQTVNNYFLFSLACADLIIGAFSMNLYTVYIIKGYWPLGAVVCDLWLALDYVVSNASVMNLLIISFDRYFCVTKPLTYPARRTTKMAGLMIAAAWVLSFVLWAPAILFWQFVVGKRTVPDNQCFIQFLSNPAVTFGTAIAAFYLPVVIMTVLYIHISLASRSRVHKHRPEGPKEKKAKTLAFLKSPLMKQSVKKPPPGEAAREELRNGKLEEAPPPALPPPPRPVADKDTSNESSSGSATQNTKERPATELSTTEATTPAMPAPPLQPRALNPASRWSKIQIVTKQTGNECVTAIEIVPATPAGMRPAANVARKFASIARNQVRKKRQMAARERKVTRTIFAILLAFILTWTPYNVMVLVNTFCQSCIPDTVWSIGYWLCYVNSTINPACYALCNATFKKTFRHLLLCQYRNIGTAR

[15] = target: T4, Muscarinic acetylcholine receptor M1 (Homo sapiens); assay: Maximal response obtained for each drug normalized to effect of carbachol in Muscarinic acetylcholine receptor M1; format: functional
[16] = target: T5, Muscarinic acetylcholine receptor M2 (Homo sapiens); assay: Amplification of transfected NIH3T3 cells was measured in Muscarinic acetylcholine receptor M2 required to produce half maximal effect; format: functional, cell-based
[17] = target: T4, Muscarinic acetylcholine receptor M1 (Homo sapiens); details: CHO
[18] = target: T6, Muscarinic acetylcholine receptor M4 (Homo sapiens); assay: Reversal of forskolin-stimulated accumulation of […] in transfected CHO cells, against Muscarinic acetylcholine receptor M4; format: functional, cell-based; details: concentration not given here
[19] = target: Muscarinic acetylcholine receptor M3 (Homo sapiens) (UniProt P20309); assay: Maximal response obtained for each drug normalized to effect of carbachol in Muscarinic acetylcholine receptor M3; format: functional
[20] = target: Muscarinic acetylcholine receptor M3 (Homo sapiens) (UniProt P20309); assay: Stimulations of inositol phosphate(PI) accumulation in transfected CHO cells in Muscarinic acetylcholine receptor M3 values are the maximal response obtained from the compound tested at 100 uM normalized to the effect of carbachol.; format: functional, cell-based
[21] = target: T4, Muscarinic acetylcholine receptor M1 (Homo sapiens); details: NIH3T3
Description: Amplification of transfected NIH3T3 cells was measured in Muscarinic acetylcholine receptor M1 required to produce half maximal effect

[22] = target: T6, Muscarinic acetylcholine receptor M4 (Homo sapiens); assay: Maximal response obtained for each drug normalized to effect of carbachol in Muscarinic acetylcholine receptor M4; format: functional
[23] = target: T3, Muscarinic acetylcholine receptor M5 (Homo sapiens); assay: Stimulations of inositol phosphate(PI) accumulation in transfected CHO cells in Muscarinic acetylcholine receptor M5 values are the maximal response obtained from the compound tested at 100 uM normalized to the effect of carbachol.; format: functional, cell-based

Muscarinic acetylcholine receptor M3 (Homo sapiens), sequence (P20309 whole entry, looked up): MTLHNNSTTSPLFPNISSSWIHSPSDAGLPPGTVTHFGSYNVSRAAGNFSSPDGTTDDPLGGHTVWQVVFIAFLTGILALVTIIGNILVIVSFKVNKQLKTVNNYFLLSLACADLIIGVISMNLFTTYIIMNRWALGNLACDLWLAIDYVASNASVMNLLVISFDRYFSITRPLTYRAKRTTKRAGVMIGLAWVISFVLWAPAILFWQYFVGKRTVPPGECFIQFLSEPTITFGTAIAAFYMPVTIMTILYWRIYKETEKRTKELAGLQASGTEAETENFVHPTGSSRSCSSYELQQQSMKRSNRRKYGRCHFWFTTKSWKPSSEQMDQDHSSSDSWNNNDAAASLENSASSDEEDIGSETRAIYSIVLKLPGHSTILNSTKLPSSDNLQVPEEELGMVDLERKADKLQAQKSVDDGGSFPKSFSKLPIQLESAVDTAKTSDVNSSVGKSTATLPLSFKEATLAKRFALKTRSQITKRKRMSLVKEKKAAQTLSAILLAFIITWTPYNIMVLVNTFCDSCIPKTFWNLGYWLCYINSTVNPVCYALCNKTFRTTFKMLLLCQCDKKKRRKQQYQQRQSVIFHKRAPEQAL

Structure (SMILES) | IC50 [1] [nM] | IC50 [2] [nM] | IC50 [3] [nM] | IC50 [4] [nM] | Ratio [7] | further results
C(#Cc1ccsc1)CO/N=C1\CN2CCC1C2 (centres undefined) | 4840 | 2690 | 15200 | 16.5 | 163 | CCh [5]: 13%; CCh [6]: 54%; CCh [8]: 19%
CO/N=C1\CN2CCC1C2 (centres undefined) | 26900 | 24200 | 16800 | 18.1 | 1340 | 
Clc1ccccc1C#CCO/N=C1\CN2CCC1C2 (centres undefined) | 1120 |  | 4010 |  | 107 | CCh [5]: 4%; CCh [6]: 32%; CCh [8]: 6%
COc1cccc(C#CCO/N=C2\CN3CC[C@@H]2C3)c1 |  |  |  |  |  | CCh [9]: 92%; ED50 [10]: 868 nM; CCh [11]: 104%; ED50 [12]: 865 nM; ED50 [13]: inactive; ED50 [14]: 51 nM; CCh [15]: 41%; ED50 [16]: 1280 nM; ED50 [17]: 1000 nM; inhibition [18]: 1.6%; CCh [19]: 87%; Stimulation [20]: 10.4%; ED50 [21]: 42 nM; CCh [22]: 72%; Stimulation [23]: 12.3%
O=[N+]([O-])c1cccc(C#CCO/N=C2\CN3CCC2C3)c1 (centres undefined) | 15100 |  | 46600 |  | 227 | 
C#C/C(C)=C\CO/N=C1\CN2CCC1C2 (centres undefined) | 1580 | 806 | 1900 | 1.02 | 790 | 
Fc1cccc(C#CCO/N=C2\CN3CCC2C3)c1 (centres undefined) | 9850 |  | 47900 |  | 132 | CCh [5]: 9%; CCh [6]: 54%; CCh [8]: 12%
C#CCC#CCC#CCO/N=C1\CN2CCC1C2 (centres undefined) |  | 958 |  | 8.04 | 119 | 
Cc1ccc(C#CCO/N=C2\CN3CCC2C3)cc1 (centres undefined) | 14100 |  | 38600 |  | 124 | 
COc1cccc(C#CCO/N=C2\CN3CC[C@H]2C3)c1 |  |  |  |  |  | CCh [9]: 33%; ED50 [10]: 2590 nM; CCh [11]: 60%; ED50 [12]: 4570 nM; CCh [15]: 51%; ED50 [16]: 1540 nM; ED50 [17]: 3700 nM; CCh [19]: 57%; Stimulation [20]: 5.2%; ED50 [21]: 1600 nM; CCh [22]: 65%; Stimulation [23]: 1.9%
C/C(C#Cc1ccccc1)=C\CO/N=C1\CN2CCC1C2 (centres undefined) | 1090 |  | 7930 |  | 7.93 | 
C#CCC#CCO/N=C1\CN2CCC1C2 (centres undefined) | 8830 | 8834 | 8070 | 22 | 402 | 
